Results from patent US20250179028A1, “ACRYLAMIDE COMPOUNDS” (NRG THERAPEUTICS LTD, priority 2022, published 2025).
Converted amounts (≈) assume the structure as drawn. Like-named read-outs stand apart in the source and are kept apart here.

Columns and labels:
CYP2D6 = CYP2D6 (Homo sapiens (Human), UniProt P10635); test: Cytochrome P450 CYP2D6 inhibition in human liver microsomes; type: in vitro ADME; conditions: human liver microsomes, average value from two experiments; for inhibition at 20 min, 1 µM: probe dextromethorphan 2 µM (dextrorphan formation), 1 uM test compound, negative values = no effective inhibition
Experimental: Studies to assess tested compound mediated inhibition of cytochrome P450 enzyme isoform CYP2D6 were performed using human liver microsomes (BD Gentest) using either a single concentration (1 μM) of test compound or concentration response (0.1, 0.3, 1, 3, 10 and 30 μM) to derive an IC50. Tested compound solutions were prepared from 10 mM stocks in DMSO and diluted to 200 μM in DMSO. Reactions were prepared in a 96 deep well plate by combining 1 μl test compound with 179 μl reaction mixture (100 mM phosphate buffered saline (PBS), 0.2 mg/mL microsomes and 2 μM Dextromethorphan prepared from stocks as detailed below).
The positive control inhibitor, quinidine, was used at a final concentration of 0.5 μM when used at a single concentration. The final concentrations of quinidine used to derive an IC50 were 0, 0.1, 0.3, 1, 3, 10 and 30 μM. Plates were warmed at 37° C. for 15 min before starting reactions with 20 μl 10 mM NADPH solution in PBS and incubated for 20 min at 37° C. The assay is performed in duplicate. Reactions were quenched with 200 μl cold acetonitrile containing internal standards (200 nM labetalol, 200 nM alprazolam and 100 nM tolbutamide). The plate was centrifuged at 4000 rpm for 30 minutes, placed on ice for 20 minutes and then centrifuged at 4000 rpm for 30 minutes again to precipitate protein. 100 μL of the supernatant was transferred to a new plate and diluted with 100 μL pure water before being analysed using UPLC/MS/MS. The products of the transformation for dextromethorphan to dextrorphan was monitored by UPLC-MS/MS. The inhibition of CYP2D6 in human liver microsomes was measured as the percentage decrease in the activity of dextrorphan formation compared to non-inhibited controls (=100% activity). The IC50 value was calculated (test compound concentration which produces 50% inhibition) by using Excel Xlfit.

[1] = PBS and FaSSIF solubility; type: physicochemical; conditions: kinetic from dmso stock
Experimental: Test compounds were prepared as 10 mM stocks in DMSO and 15 μl samples transferred in duplicate into 1.5 mL glass flat bottom vials (BioTech Solutions). Fasted state simulated intestinal fluid (FaSSIF) or PBS (pH 7.4) was added to each vial to final volume of 500 μl. One PTFE encapsulated stir stick (V&P Scientific) was placed in each vial before sealing with PTFE/SIL plugs (BioTech Solutions). Vials were shaken at 1100 rpm for 2 hr at 25° C. Samples were then filtered through MultiScreen Solvinert filter plates (Millipore) via vacuum filtration. Aliquots of filtrate (5 μl) plus 5 μl DMSO were diluted in 490 μl 50% acetonitrile in water containing internal standard. The filtrate was analysed and quantified against a standard of known concentration using LC-MS/MS. Solubility values of the test compound and control compound were calculated as follows: […]

[2] = Hepatocyte clearance assay, rat; type: in vitro ADME; conditions: average value from two experiments, read-out: Rat heps Clint
Experimental: (§1) In vitro clearance studies were performed in primary rat and human hepatocytes (BiolVT). Vials of cryopreserved rat or human hepatocytes were thawed in a 37° C. water bath for 2 min. Cells were transferred into thawing medium (Williams' Medium E containing 30% Percoll, 1×GlutaMAX-1, 15 mM HEPES, 5% fetal bovine serum (FBS), 4 μg/ml insulin, 1 μM dexamethasone), centrifuged at 100 g for 10 min then resuspended in culture medium (Leibovitz's L-15 Medium) at a concentration of 0.5×10^6 viable cells/mL (number of viable cells assessed using AO/PI staining). Hepatocytes (198 μL) were transferred into wells of a 96-well non-coated plate and placed in a 37° C. incubator for 10 min. Test compound solutions were prepared from 10 mM stocks in DMSO, diluted to 100 μM in 50% (v/v in water) acetonitrile. Test compound samples (2 μl) were added to each well of hepatocytes and incubated at 37° C. Samples (25 μl) were collected at t=0, 15, 30, […] and 120 min, mixed with 6 volumes (150 μl) of acetonitrile containing internal standard (100 nM alprazolam, 200 nM caffeine and 100 nM tolbutamide), vortexed for 5 min and centrifuged for 45 min at 3220 g. An aliquot of supernatant (100 μL) was diluted with 100 μL ultra-pure water, and the mixture was used for LC/MS/MS analysis. All incubations were performed in duplicate. Peak areas were determined from extracted ion chromatograms. The slope value, k, was determined by linear regression of the natural logarithm of the remaining percentage of the parent drug vs. incubation time curve. The in vitro half-life (in vitro t½) was determined from the slope value: in vitro t½=0.693/k. Conversion of the in vitro t½ (in min) into the in vitro intrinsic clearance (in vitro CLint, in μL/min/1×10^6 cells) was done using the following equation (mean of duplicate determinations):
(§2) [formula] • V=incubation volume (0.2 mL) • N=number of hepatocytes per well (0.1×10^6 cells).

[3] = Hepatocyte clearance assay, human; type: in vitro ADME; conditions: average value from two experiments, read-out: Human heps Clint
Experimental: as §1, §2

mPTP = mPTP activity (Ca2+ retention) assay in isolated rat liver mitochondria; type: biochemical; conditions: isolated rat liver mitochondria; average value from multiple experiments (n ≥ 2)
Description: Pharmacological inhibition or modulation of the mPTP can be measured in well characterised ‘Ca^2+ retention’ assays performed in isolated mitochondria. In vitro isolated mitochondria rapidly sequester exogenous Ca^2+ until the intramitochondrial Ca^2+ concentration reaches the threshold for mPTP activation. Once the pore is activated, mitochondrial integrity is compromised and the stored Ca^2+ is released. The distribution of Ca^2+ between extra- and intra-mitochondrial compartments can be measured in real time with the use of membrane-impermeant Ca^2+ sensitive fluorescent dyes. Depending on the configuration of the assay, inhibition or modulation of the mPTP either delays the opening of the pore or increases the concentration of Ca^2+ required to induce mPTP opening.
MPTP activity was measured in mitochondria freshly isolated from female Sprague Dawley (250 to 300 gram) rat livers using the following method. Cervical dislocation was performed on the rat. The liver was then perfused in-situ with ˜40 ml cold Dulbecco's Phosphate Buffered Saline (DPBS) prior to dissection and transferred into 30 ml Isolation Buffer (250 mM Sucrose, 10 mM KCl, 1 mM EGTA, 1 mM EDTA, 25 mM HEPES, adjusted to pH 7.5 with 1 M NaOH). Each lobe of the liver was then removed from the buffer, minced using tweezers and a scalpel into ˜5 mm pieces then transferred into a 50 ml Potterton dounce homogenization tube on ice containing 30 ml ice-cold centrifugation buffer (300 mM Trehalose, 25 mM HEPES, 1 mM EGTA, 1 mM EDTA, 10 mM KCl, adjusted to pH 7.5 with 1 M NaOH and supplemented with 0.1% bovine serum albumin (BSA) and complete protease inhibitor cocktail (one tablet of inhibitor per 50 mls of buffer). Homogenisation was carried out using a teflon pestle at 1800 rpm. The slurry was centrifuged at 800 g for 10 min at 4° C., then the supernatant centrifuged at 10,000 g for 10 min. The pellet was washed once with FLIPR assay buffer (75 mM Mannitol, 25 mM Sucrose, 5 mM Potassium Phosphate Monobasic, 20 mM Tris base, 100 mM KCl, 0.1% BSA adjusted to pH 7.4 with 5M HCl) centrifuged again, then resuspended in FLIPR assay buffer to a concentration of 8.8 mg/ml protein.
Tested compounds (10 mM stock in DMSO) were serially diluted in DMSO in half log steps to generate 10 test concentrations (final concentrations in assay 30 μM to 1 nM). An intermediate dilution of 5 μl DMSO samples into 247 μl FLIPR assay buffer was carried out prior to transfer of 5 μl into duplicate wells of a 384 well polypropylene assay plate. Control wells were 0.5% (v/v) DMSO and 5 μM cyclosporin A.
A stock mitochondria/Fluo5N assay solution was prepared in 5.6 ml FLIPR assay buffer (at RT) supplemented with succinate disodium salt (10 mM), rotenone (1 μM), Fluo5N pentapotassium salt (2 μM) and 1 ml mitochondria suspension, then transferred (15 μl) into the assay plate containing test compounds and incubated for 10 min at RT. Assay plates were then transferred to a FLIPR Tetra plate reader (Molecular Devices). Dye fluorescence was then measured every 3 sec for a total of 10 min. After 12 sec, a 2.5 μl bolus of CaCl2 (75 μM) was added from a source plate containing 675 μM CaCl2 in FLIPR assay buffer. IC50 values for tested compounds were calculated using the fluorescence value collected at the 10 min timepoint with % inhibition calculated using the DMSO control and cyclosporin A values as […] respectively.

[4] = fasted state simulated intestinal fluid (FaSSIF), fassif, Fasted state simulated intestinal fluid, 2 hr at 25° C., read-out: Solubility FaSSIF
[5] = cryopreserved primary hepatocytes
[6] = cryopreserved primary rat hepatocytes
[7] = cryopreserved primary human hepatocytes
[8] = aqueous buffer, PBS pH 7.4, 2 hr at 25° C., read-out: Solubility PBS (pH 7.4)

CYP2D6, sequence (P10635 whole entry, canonical isoform): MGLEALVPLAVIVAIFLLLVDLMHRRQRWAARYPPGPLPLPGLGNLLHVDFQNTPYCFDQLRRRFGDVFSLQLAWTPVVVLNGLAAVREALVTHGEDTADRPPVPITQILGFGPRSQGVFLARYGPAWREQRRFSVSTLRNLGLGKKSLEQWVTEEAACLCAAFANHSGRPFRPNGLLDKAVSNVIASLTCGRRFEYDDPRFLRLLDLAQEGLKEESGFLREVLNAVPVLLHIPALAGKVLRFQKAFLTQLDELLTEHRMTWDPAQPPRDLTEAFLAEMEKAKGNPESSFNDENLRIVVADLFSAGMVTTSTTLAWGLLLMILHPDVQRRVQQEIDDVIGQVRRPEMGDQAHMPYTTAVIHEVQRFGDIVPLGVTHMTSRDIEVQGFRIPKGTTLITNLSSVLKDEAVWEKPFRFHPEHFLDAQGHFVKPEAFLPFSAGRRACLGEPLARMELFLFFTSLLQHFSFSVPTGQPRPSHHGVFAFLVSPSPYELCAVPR

Row | SMILES | inhibition at 20 min, 1 µM (CYP2D6) [%] | solubility at 2 h [1, 4] [µM] | hepatocyte CLint at 1 µM [2, 5] [µL/min/1e6 cells] | hepatocyte CLint at 1 µM [3, 5] [µL/min/1e6 cells] | mPTP Rat liver pIC50 (mPTP) | hepatocyte CLint at 1 µM [2, 6] [µL/min/1e6 cells] | hepatocyte CLint at 1 µM [3, 7] [µL/min/1e6 cells] | solubility at 2 h [1, 8] [µM] | IC50 (CYP2D6) [µM]
1 | CO[C@H]1Cc2ccccc2[C@@H]1NC(=O)/C=C/c1ccc2c(Cl)n[nH]c2c1 [Example 72, (E)-3-(3-chloro-1H-indazol-6-yl)-N-((1S,2S)-2-methoxy-2,3-dihydro-1H-inden-1-yl)acrylamide] | 9.98 | 24.4 (≈ 8.98 µg/mL) | 77 | 11.3 |  |  |  |  | 
2 | Cc1ccc(F)c(C)c1NC(=O)/C=C/c1ccc2c(c1)NC(=O)C2 [Example 20, (E)-N-(3-fluoro-2,6-dimethylphenyl)-3-(2-oxoindolin-6-yl)acrylamide] | -1.76 | 210 (≈ 68.3 µg/mL) |  |  | 6.8 | 11.9 | 6.08 |  | 
3 | COCc1c(F)cccc1NC(=O)/C=C/c1ccc2c(C)n[nH]c2c1 [Example 50, (E)-N-(3-fluoro-2-(methoxymethyl)phenyl)-3-(3-methyl-1H-indazol-6-yl)acrylamide] | 1.3 | 23.7 (≈ 8.04 µg/mL) |  |  | 7.3 | 47.8 | 15.6 |  | 
4 | O=C(/C=C/c1cc2[nH]nnc2cc1F)NC1CCc2ccccc21 (centres unmarked) [Example 27, (E)-N-(2,3-dihydro-1H-inden-1-yl)-3-(5-fluoro-1H-benzo[d][1,2,3]triazol-6-yl) acrylamide] | 14.3 | 43.1 (≈ 13.9 µg/mL) |  | 9.6 |  |  |  |  | 
5 | Cc1cccc(C)c1NC(=O)/C=C/c1ccc2c(c1)[nH]c(=O)n2C [Example 29, (E)-N-(2,6-dimethylphenyl)-3-(1-methyl-2-oxo-2,3-dihydro-1H-benzo[d]imidazol-5-yl)acrylamide] | -3.03 | 69.8 (≈ 22.4 µg/mL) |  |  | 6.9 | 16.1 |  | 33.5 (≈ 10.8 µg/mL) | 
6 | Cc1c(F)cc(F)c(C)c1NC(=O)/C=C/c1ccc2c(c1)NC(=O)C2 [Example 35, (E)-N-(3,5-difluoro-2,6-dimethylphenyl)-3-(2-oxoindolin-6-yl)acrylamide] | 2.83 | 258 (≈ 88.4 µg/mL) |  |  | 7.2 |  | 8.33 |  | 
7 | N#Cc1n[nH]c2cc(/C=C/C(=O)NC3CCc4ccccc43)ccc12 (centres unmarked) [Example 26, (E)-3-(3-cyano-1H-indazol-6-yl)-N-(2,3-dihydro-1H-inden-1-yl)acrylamide] | 3.49 |  |  |  | 7.2 | 87.5 |  |  | 8.8
8 | COCc1c(F)cncc1NC(=O)/C=C/c1ccc2c(C)n[nH]c2c1 [Example 114, (2E)-N-[5-fluoro-4-(methoxymethyl)pyridin-3-yl]-3-(3-methyl-1H-indazol-6-yl)prop-2-enamide] |  | 19 (≈ 6.47 µg/mL) | 76 | 3 |  |  |  |  | 
9 | CC(C)c1ccccc1NC(=O)/C=C/c1ccc2oc(=O)[nH]c2c1 [Example 13, (E)-N-(2-isopropylphenyl)-3-(2-oxo-2,3-dihydrobenzo[d]oxazol-5-yl)acrylamide] | 3.84 |  |  |  | 6.0 |  |  | 5.3 (≈ 1.71 µg/mL) | 
10 | O=C(/C=C/c1ccc2c(C(F)(F)F)n[nH]c2c1)NC1CCc2ccccc21 (centres unmarked) [Example 28, (E)-N-(2,3-dihydro-1H-inden-1-yl)-3-(3-(trifluoromethyl)-1H-indazol-6-yl) acrylamide] | 8.27 |  | 73.6 |  |  |  |  |  | 
11 | Cc1c(F)cccc1NC(=O)/C=C/c1ccc2c(c1)NC(=O)C2(C)C [Example 3, (E)-3-(3,3-dimethyl-2-oxoindolin-6-yl)-N-(3-fluoro-2-methylphenyl)acrylamide] | -1.87 |  |  |  | 6.4 |  |  | 1.75 (≈ 0.592 µg/mL) | 
12 | Cc1c(F)cccc1NC(=O)/C=C/c1ccc2c(c1)NC(=O)C21CC1 [Example 4, (E)-N-(3-fluoro-2-methylphenyl)-3-(2′-oxospiro[cyclopropane-1,3′-indolin]-6′-yl)acrylamide] | 2.89 |  |  |  | 6.5 |  |  | 0.31 (≈ 0.104 µg/mL) | 
